Test results reported in US12357695B2, “Peptides and nanoparticles for intracellular delivery of molecules” (AADIGEN, LLC, priority 2019, dated 2025).
“Also recorded” adds a separate entry of the source. Square brackets hold non-standard residues; d marks the D form. Primed or numbered codes have the meaning given here. Ends that are not written are not given here. Stearyl = stearyl group covalently linked to the N-terminus; PEG4′ = four-unit PEG spacer; PEG2′ = two-unit PEG spacer; Ahx = NCCCCCC(=O)O; Ava = NCCCCC(=O)O; βAla = NCCC(=O)O

tested on: mice or rat models; assay: Summary of cargo delivery to targeted organ (Table 1); assay type: in vivo; conditions: cargoes and route (IV, IM, SQ, NB) per peptide as listed in Table 1
Excerpt: Table 1 lists a summary of cell-penetrating peptides that have been proven successful in delivering various cargo molecules to on or more targeted organ (e.g., by intravenous (IV), intramuscular (IM), or subcutaneous (SQ) administration, or intratraccheal instillation or nebulization (NB)) in mice or rat models.

Row | Substance | Targeted Organ
1 | ASSLNIA-Ava-KWWERWWREWPRKRR (ASSLNIAKWWERWWREWPRKRR; Ava linker; VARIANT 7, 8 Linked by a 5-amino pentanoic acid) [VEPEP-3C] | Muscle
2 | Ac-(PEG)2-βA-KWRSALWRWRLWRVRSWSR-NH2 ({Ac-PEG2′}-[βAla]KWRSALWRWRLWRVRSWSR-NH2) [ADGN-100-PEG2] | Lung:Liver/; also recorded: Spleen
3 | Ac-(PEG)2-βALWRALWRLWRSLWRLLWKA-NH2 ({Ac-PEG2′}-[βAla]LWRALWRLWRSLWRLLWKA-NH2) [ADGN-106-PEG2] | Lung/Kidney/; also recorded: Spleen
4 | Ac-CKRAVRWWLRWASRWFSRWAWWR [VEPEP-9B] | Heart
5 | Ac-GYVS-Ava(CH2)2-ALWRALWRLWRSLWRLLWKA-NH2 [ADGN-106 hydro-4] | Brain/Kidney
6 | Ac-SYTSSTM-ava-KWWERWWREWPRKRR (SYTSSTMKWWERWWREWPRKRR; N-acetyl, Ava linker; VARIANT 1 N-terminal acetylation; VARIANT 7, 8 Linked by a 5-amino pentanoic acid) [VEPEP-3E] | Brain
7 | Ac-YIGSR-(PEG)2-βA-KWRSALWRWRLWRVRSWSR-NH2 (Ac-YIGSR[PEG2′][βAla]KWRSALWRWRLWRVRSWSR-NH2) [ADGN-100-HYPEG2] | Lung
8 | Ac-YIGSR-(PEG)4-βA-KWRSALWRWRLWRVRSWSR-NH2 (Ac-YIGSR[PEG4′][βAla]KWRSALWRWRLWRVRSWSR-NH2) [ADGN-100-HYPEG4] | Lung
9 | Ac-YIGSR-A-KWRSALWRWRLWRVRSWSR-NH2 (Ac-YIGSR[βAla]KWRSALWRWRLWRVRSWSR-NH2; SMILES CC[C@H](C)[C@H](NC(=O)[C@H](Cc1ccc(O)cc1)NC(C)=O)C(=O)NCC(=O)N[C@@H](CO)C(=O)N[C@@H](CCCNC(=N)N)C(=O)NCCC(=O)N[C@@H](CCCCN)C(=O)N[C@@H](Cc1c[nH]c2ccccc12)C(=O)N[C@@H](CCCNC(=N)N)C(=O)N[C@@H](CO)C(=O)N[C@@H](C)C(=O)N[C@@H](CC(C)C)C(=O)N[C@@H](Cc1c[nH]c2ccccc12)C(=O)N[C@@H](CCCNC(=N)N)C(=O)N[C@@H](Cc1c[nH]c2ccccc12)C(=O)N[C@@H](CCCNC(=N)N)C(=O)N[C@@H](CC(C)C)C(=O)N[C@@H](Cc1c[nH]c2ccccc12)C(=O)N[C@@H](CCCNC(=N)N)C(=O)N[C@H](C(=O)N[C@@H](CCCNC(=N)N)C(=O)N[C@@H](CO)C(=O)N[C@@H](Cc1c[nH]c2ccccc12)C(=O)N[C@@H](CO)C(=O)N[C@@H](CCCNC(=N)N)C(N)=O)C(C)C) [ADGN-100-Hydro] | Lung/Kidney
10 | Ac-YIGSR-Ahx-ALWRALWRLWRSLWRLLWKA-NH2 (Ac-YIGSR[Ahx]ALWRALWRLWRSLWRLLWKA-NH2; SMILES CC[C@H](C)[C@H](NC(=O)[C@H](Cc1ccc(O)cc1)NC(C)=O)C(=O)NCC(=O)N[C@@H](CO)C(=O)N[C@@H](CCCNC(=N)N)C(=O)NCCCCCC(=O)N[C@@H](C)C(=O)N[C@@H](CC(C)C)C(=O)N[C@@H](Cc1c[nH]c2ccccc12)C(=O)N[C@@H](CCCNC(=N)N)C(=O)N[C@@H](C)C(=O)N[C@@H](CC(C)C)C(=O)N[C@@H](Cc1c[nH]c2ccccc12)C(=O)N[C@@H](CCCNC(=N)N)C(=O)N[C@@H](CC(C)C)C(=O)N[C@@H](Cc1c[nH]c2ccccc12)C(=O)N[C@@H](CCCNC(=N)N)C(=O)N[C@@H](CO)C(=O)N[C@@H](CC(C)C)C(=O)N[C@@H](Cc1c[nH]c2ccccc12)C(=O)N[C@@H](CCCNC(=N)N)C(=O)N[C@@H](CC(C)C)C(=O)N[C@@H](CC(C)C)C(=O)N[C@@H](Cc1c[nH]c2ccccc12)C(=O)N[C@@H](CCCCN)C(=O)N[C@@H](C)C(N)=O) [ADGN-106 hydro-7] | Lung/Tumor
11 | KSYDTY-ava-ALRWLRWASRWFSRWAWR (KSYDTY[Ava]ALRWLRWASRWFSRWAWR) [VEPEP-9A] | Brain/Lymphnode
12 | KSYDTYAAETRRWASRWFSRWAWWR (not fully specified (N-terminus, C-terminus)) [VEPEP-9D] | Brain/Lymphnode
13 | LSSRLDA-Ava-KWWERWWREWPRKRR (LSSRLDAKWWERWWREWPRKRR; Ava linker; VARIANT 7, 8 Linked by a 5-amino pentanoic acid) [VEPEP-3D] | Heart/Muscle
14 | Stearyl-βA-ALWRALWRLWRSLWRLLWKA-NH2 (Stearyl-[βAla]ALWRALWRLWRSLWRLLWKA-NH2) [ADGN-106 Stearyl] | Liver/Spleen
15 | beta-AKWFERWFREWPRKRR (N-terminal beta-alanine; VARIANT 1 beta-A) [VEPEP-3a] | Kidney/Pancreas
16 | beta-ALRWWLRWASRWFSRWAWWR (N-terminal beta-alanine; VARIANT 1 beta-A) [VEPEP-9] | Brain/Liver/; also recorded: Lung/Kidney/
17 | beta-RWWLRWASRWFSRWAWR (not fully specified (residue 1, N-terminus); printed as beta-RWWLRWASRWFSRWAWR) [VEPEP-9C] | Liver/Lung/; also recorded: Kidney/Brain
